Measurements published in patent publication US9624182B2, “Compounds as lysophosphatidic acid receptor antagonists” (Amira Pharmaceuticals, Inc., priority 2009, dated 2017).

These compounds were tested against T1, human LPA1 (Homo sapiens, UniProt Q92633) (assay: LPA1 calcium flux assay). Conditions: CHO cells expressing human LPA1, stimulated with 10 nM LPA; read-out: HLPA1 Ca Flux IC50.
T1 construct: the full-length cDNA for human LPA1 was obtained by PCR of the reverse transcription reaction; expressed in transfected cells
Type: cell-based
In short: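 Antagonism measured as block of 10 nM LPA-evoked calcium rise in stable human LPA1-CHO cells. After overnight serum-free culture and 1 h dye loading at 37 °C (buffer with 0.3% fatty-acid-free albumin), compound was added for 30 min at room temperature. Titration curves gave IC50.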

T1 sequence (Q92633 whole entry): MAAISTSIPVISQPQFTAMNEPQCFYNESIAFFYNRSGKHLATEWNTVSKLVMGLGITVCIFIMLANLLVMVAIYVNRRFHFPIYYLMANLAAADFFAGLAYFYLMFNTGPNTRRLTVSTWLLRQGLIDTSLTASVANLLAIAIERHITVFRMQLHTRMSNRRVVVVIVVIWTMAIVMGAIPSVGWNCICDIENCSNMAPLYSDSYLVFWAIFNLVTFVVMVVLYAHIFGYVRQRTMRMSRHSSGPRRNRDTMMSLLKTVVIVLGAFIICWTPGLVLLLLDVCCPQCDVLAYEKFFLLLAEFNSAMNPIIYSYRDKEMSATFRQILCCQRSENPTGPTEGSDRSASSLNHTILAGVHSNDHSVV

First: Cc1noc(-c2ccc(-c3ccc(C4(C(=O)O)CC4)cc3)cc2)c1CCC(=O)N(C)[C@H](C)c1ccccc1 [Compound 1-105, 1-[4′-(3-Methyl-4-{2-[(R)-methyl-(1-phenyl-ethyl)-carbamoyl]-ethyl}-isoxazol-5-yl)-biphenyl-4-yl]-cyclopropanecarboxylic acid]
Second: Cc1noc(-c2ccc(-c3ccc(C4(C(=O)O)CC4)cc3)cc2)c1CCC(=O)N(C)C(C)(C)c1ccccc1 [Compound 1-118, 1-[4′-(3-Methyl-4-{2-[methyl-(1-methyl-1-phenyl-ethyl)-carbamoyl]-ethyl}-isoxazol-5-yl)-biphenyl-4-yl]-cyclopropanecarboxylic acid]
The IC50 of the first is lower: < 300 nM for the first, 1000 to 50000 nM for the second.

`Cc1noc(-c2ccc(-c3ccc(C4(C(=O)O)CC4)cc3)cc2)c1CCC(=O)NC(C)(C)c1ccccc1` [Compound 1-106, 1-(4′-{3-Methyl-4-[2-(1-methyl-1-phenyl-ethylcarbamoyl)-ethyl]-isoxazol-5-yl}-biphenyl-4-yl)-cyclopropanecarboxylic acid] and `CC(=O)N(CCc1c(C)noc1-c1ccc(-c2ccc(C3(C(=O)O)CC3)cc2)cc1)Cc1ccccc1` [Compound 1-142, 1-(4′-{4-[2-(Acetyl-benzyl-amino)-ethyl]-3-methyl-isoxazol-5-yl}-biphenyl-4-yl)-cyclopropanecarboxylic acid] fall in the same range of IC50: 1000 to 50000 nM for the first, 1000 to 50000 nM for the second.

Compared with `Cc1noc(-c2ccc(-c3ccc(C4(C(=O)O)CC4)cc3)cc2)c1CCC(=O)N1Cc2ccccc2C1` [Compound 1-107, 1-(4′-{4-[3-(1,3-Dihydro-isoindol-2-yl)-3-oxo-propyl]-3-methyl-isoxazol-5-yl}-biphenyl-4-yl)-cyclopropanecarboxylic acid], `Cc1noc(-c2ccc(-c3ccc(C4(C(=O)O)CC4)cc3)cc2)c1CSCC(=O)c1ccccc1` [Compound 1-120, 1-{4′-[3-Methyl-4-(2-oxo-2-phenyl-ethylsulfanylmethyl)-isoxazol-5-yl]-biphenyl-4-yl}-cyclopropanecarboxylic acid] is lower in IC50: > 50000 nM for the first, 1000 to 50000 nM for the second.

`Cc1noc(-c2ccc(-c3ccc(CC(=O)O)cc3)cc2)c1CSCCc1ccccc1` [Compound 1-108, [4′-(3-Methyl-4-phenethylsulfanylmethyl-isoxazol-5-yl)-biphenyl-4-yl]-acetic acid] and `Cc1noc(-c2ccc(-c3ccc(C(C)C(=O)O)cc3)cc2)c1CSCCc1ccccc1` (centres unmarked) [Compound 1-123, 2-[4′-(3-Methyl-4-phenethylsulfanylmethyl-isoxazol-5-yl)-biphenyl-4-yl]-propionic acid] cannot be ordered by IC50: < 300 nM for the first, < 300 nM for the second.

First: Cc1noc(-c2ccc(-c3ccc(CC(=O)O)cc3)cc2)c1CS(=O)(=O)CCc1ccccc1 [Compound 1-109, {4′-[3-Methyl-4-(2-phenyl-ethanesulfonylmethyl)-isoxazol-5-yl]-biphenyl-4-yl}-acetic acid]
Second: CCC(C(=O)O)c1ccc(-c2ccc(-c3onc(C)c3CSCCc3ccccc3)cc2)cc1 (centres unmarked) [Compound 1-122, 2-[4′-(3-Methyl-4-phenethylsulfanylmethyl-isoxazol-5-yl)-biphenyl-4-yl]-butyric acid]
The IC50 of the first is higher: 1000 to 50000 nM for the first, < 300 nM for the second. The second is the more potent here.

`Cc1noc(-c2ccc(-c3ccc(C4(C(=O)O)CC4)cc3)cc2)c1C=CCC(C)c1ccccc1` (centres unmarked) [Compound 1-110, 1-{4′-[3-Methyl-4-(4-phenyl-pent-1-enyl)-isoxazol-5-yl]-biphenyl-4-yl}-cyclopropanecarboxylic acid] and `Cc1noc(-c2ccc(-c3ccc(C4(C(=O)O)CC4)cc3)cc2)c1/C=C\CC(C)c1ccccc1` (centres unmarked) [Compound 1-112, 1-{4′-[3-Methyl-4-((Z)-4-phenyl-pent-1-enyl)-isoxazol-5-yl]-biphenyl-4-yl}-cyclopropanecarboxylic acid] cannot be ordered by IC50: < 300 nM for the first, < 300 nM for the second.

`Cc1noc(-c2ccc(-c3ccc(C4(C(=O)O)CC4)cc3)cc2)c1C=CC(C)Cc1ccc(C(C)C)cc1` (centres unmarked) [Compound 1-111, 1-(4′-{4-[4-(4-Isopropyl-phenyl)-3-methyl-but-1-enyl]-3-methyl-isoxazol-5-yl}-biphenyl-4-yl)-cyclopropanecarboxylic acid] and `Cc1noc(-c2ccc(-c3ccc(C4(C(=O)O)CC4)cc3)cc2)c1/C=C/CC(C)c1ccccc1` (centres unmarked) [Compound 1-113, 1-{4′-[3-Methyl-4-((E)-4-phenyl-pent-1-enyl)-isoxazol-5-yl]-biphenyl-4-yl}-cyclopropanecarboxylic acid] fall in the same range of IC50: 1000 to 50000 nM for the first, 1000 to 50000 nM for the second.

`Cc1noc(-c2ccc(-c3ccc(C4(C(=O)O)CC4)cc3)cc2)c1C(O)C/C=C/c1ccccc1` (centres unmarked) [Compound 1-115, 1-{4′-[4-((E)-1-Hydroxy-4-phenyl-but-3-enyl)-3-methyl-isoxazol-5-yl]-biphenyl-4-yl}-cyclopropanecarboxylic acid] and `COC(CCCc1ccccc1)c1c(C)noc1-c1ccc(-c2ccc(C3(C(=O)O)CC3)cc2)cc1` (centres unmarked) [Compound 1-148, 1-{4′-[4-(1-Methoxy-4-phenyl-butyl)-3-methyl-isoxazol-5-yl]-biphenyl-4-yl}-cyclopropanecarboxylic acid] cannot be ordered by IC50: < 300 nM for the first, < 300 nM for the second.

First: Cc1noc(-c2ccc(-c3ccc(C4(C(=O)O)CC4)cc3)cc2)c1CCC(=O)N(C)CC1CC1 [Compound 1-119, 1-(4′-{4-[2-(Cyclopropylmethyl-methyl-carbamoyl)-ethyl]-3-methyl-isoxazol-5-yl}-biphenyl-4-yl)-cyclopropanecarboxylic acid]
Second: Cc1noc(-c2ccc(-c3ccc(C4(C(=O)O)CC4)cc3)cc2)c1CCC(=O)N(C)C1CC1 [Compound 1-127, 1-(4′-{4-[2-(Cyclopropyl-methyl-carbamoyl)-ethyl]-3-methyl-isoxazol-5-yl}-biphenyl-4-yl)-cyclopropanecarboxylic acid]
The IC50 of the first is lower: 300 to 1000 nM for the first, 1000 to 50000 nM for the second.

Compared with `Cc1noc(-c2ccc(-c3ccc(C4(C(=O)O)CC4)cc3)cc2)c1C(=O)CCCc1ccccc1` [Compound 1-124, 1-{4′-[3-Methyl-4-(4-phenyl-butyryl)-isoxazol-5-yl]-biphenyl-4-yl}-cyclopropanecarboxylic acid], `Cc1noc(-c2ccc(-c3ccc(C4(C(=O)O)CC4)cc3)cc2)c1C/C(CCc1ccccc1)=N/O` [Compound 1-134, 1-[4′-(4-{2-[Hydroxyimino]-4-phenyl-butyl}-3-methyl-isoxazol-5-yl)-biphenyl-4-yl]-cyclopropanecarboxylic acid] is lower in IC50: 1000 to 50000 nM for the first, < 300 nM for the second.

`Cc1noc(-c2ccc(-c3ccc(C4(CC(=O)O)CC4)cc3)cc2)c1CSCCc1ccccc1` [Compound 1-125, {1-[4′-(3-Methyl-4-phenethylsulfanylmethyl-isoxazol-5-yl)-biphenyl-4-yl]-cyclopropyl}-acetic acid] and `Cc1noc(-c2ccc(-c3ccc(C4(CC(=O)O)CC4)cc3)cc2)c1C(O)CCCc1ccccc1` (centres unmarked) [Compound 1-140, (1-{4′-[4-(1-Hydroxy-4-phenyl-butyl)-3-methyl-isoxazol-5-yl]-biphenyl-4-yl}-cyclopropyl)-acetic acid] cannot be ordered by IC50: < 300 nM for the first, < 300 nM for the second.

`Cc1noc(-c2ccc(-c3ccc(C(C)(C)C(=O)O)cc3)cc2)c1CSCCc1ccccc1` [Compound 1-133, 2-Methyl-2-[4′-(3-methyl-4-phenethylsulfanylmethyl-isoxazol-5-yl)-biphenyl-4-yl]-propionic acid] and `Cc1noc(-c2ccc(-c3ccc(C(C(=O)O)C(C)C)cc3)cc2)c1CSCCc1ccccc1` (centres unmarked) [Compound 1-137, 3-Methyl-2-[4′-(3-methyl-4-phenethylsulfanylmethyl-isoxazol-5-yl)-biphenyl-4-yl]-butyric acid] cannot be ordered by IC50: < 300 nM for the first, < 300 nM for the second.

`Cc1noc(-c2ccc(-c3ccc(C(C)C(=O)O)cc3)cc2)c1CC(F)(F)CCc1ccccc1` (centres unmarked) [Compound 1-136, 2-{4′-[4-(2,2-Difluoro-4-phenyl-butyl)-3-methyl-isoxazol-5-yl]-biphenyl-4-yl}-propionic acid] and `Cc1noc(-c2ccc(-c3ccc(C(Cc4ccccc4)C(=O)O)cc3)cc2)c1CSCCc1ccccc1` (centres unmarked) [Compound 1-145, 2-[4′-(3-Methyl-4-phenethylsulfanylmethyl-isoxazol-5-yl)-biphenyl-4-yl]-3-phenyl-propionic acid] cannot be ordered by IC50: < 300 nM for the first, < 300 nM for the second.

`CC(=O)N(Cc1ccccc1)CC(O)Cc1c(C)noc1-c1ccc(-c2ccc(C3(C(=O)O)CC3)cc2)cc1` (centres unmarked) [Compound 1-138, 1-(4′-{4-[3-(Acetyl-benzyl-amino)-2-hydroxy-propyl]-3-methyl-isoxazol-5-yl}-biphenyl-4-yl)-cyclopropanecarboxylic acid] and `Cc1noc(-c2ccc(-c3ccc(C4(C(=O)O)CC4)cc3)cc2)c1CCN(Cc1ccccc1)S(C)(=O)=O` [Compound 1-143, 1-(4′-{4-[2-(Benzyl-methanesulfonyl-amino)-ethyl]-3-methyl-isoxazol-5-yl}-biphenyl-4-yl)-cyclopropanecarboxylic acid] fall in the same range of IC50: 1000 to 50000 nM for the first, 1000 to 50000 nM for the second.

First: Cc1noc(-c2ccc(-c3ccc(C4(C(=O)O)CC4)cc3)cc2)c1/C=C/CN(Cc1ccccc1)S(C)(=O)=O [Compound 1-139, 1-(4′-{4-[3-(Benzyl-methanesulfonyl-amino)-propenyl]-3-methyl-isoxazol-5-yl}-biphenyl-4-yl)-cyclopropanecarboxylic acid]
Second: CCOC(CCCc1ccccc1)c1c(C)noc1-c1ccc(-c2ccc(C3(C(=O)O)CC3)cc2)cc1 (centres unmarked) [Compound 1-147, 1-{4′-[4-(1-Ethoxy-4-phenyl-butyl)-3-methyl-isoxazol-5-yl]-biphenyl-4-yl}-cyclopropanecarboxylic acid]
The IC50 of the first is lower: < 300 nM for the first, 300 to 1000 nM for the second. The first is the more potent here.

First: Cc1noc(-c2ccc(-c3ccc(C4(C(=O)O)CC4)cc3)cc2)c1NCCC(C)(C)C [Compound 1-151, 1-{4′-[4-(3,3-Dimethyl-butylamino)-3-methyl-isoxazol-5-yl]-biphenyl-4-yl}-cyclopropanecarboxylic acid]
Second: Cc1noc(-c2ccc(-c3ccc(C4(C(=O)O)CC4)cc3)cc2)c1CO [Compound 1-152, 1-[4′-(4-Hydroxymethyl-3-methyl-isoxazol-5-yl)-biphenyl-4-yl]-cyclopropanecarboxylic acid]
The IC50 of the first is lower: 300 to 1000 nM for the first, 1000 to 50000 nM for the second.
